pIC50: −log10 of the molar value.
Target: T1, MEK1 (Homo sapiens, UniProt Q02750, DEL33-52/S218E/S222D)
T1 construct: 6-histidine tag (pFastbac leader) (N); made in house; host or cells: Spodoptera frugiperda Sf9 (baculovirus) for MEK1; E. coli for GST-ERK1
Experiment: MEK1 inhibition, fluorescence polarization (IMAP) assay with ERK1 and FI-Erktide
Type: biochemical
Conditions: 1 nM MEK1, 25 nM ERK1, 400 μM ATP, 500 nM FI-Erktide, 22 min at room temperature; read-out: IC50 of Exemplified Compounds Against MEK1
Procedure: The deletion from residues 32-51, and the two mutations, S218E and S222D, may be obtained by quick change PCR.
Reaction product is determined quantitatively by fluorescent polarization using progressive IMAP beads from Molecular Devices.
The reaction mixture may then be incubated at room temperature for 22 min, and quenched and developed by addition of 20 μl of 1:200 dilution of progressive IMAP beads (Molecular Devices) in 80% buffer A, 20% buffer B and 0.003% Tween 20. Fluorescence polarization of the resulting reaction mixtures may be measured after a 1 hour incubation at room temperature.
IC50 values may be calculated by non-linear curve fitting of the compound concentrations and fluorescence polarization signal to the standard IC50 equation.

T1 sequence (Q02750 with tags, fused parts or gaps DEL33-52/S218E/S222D): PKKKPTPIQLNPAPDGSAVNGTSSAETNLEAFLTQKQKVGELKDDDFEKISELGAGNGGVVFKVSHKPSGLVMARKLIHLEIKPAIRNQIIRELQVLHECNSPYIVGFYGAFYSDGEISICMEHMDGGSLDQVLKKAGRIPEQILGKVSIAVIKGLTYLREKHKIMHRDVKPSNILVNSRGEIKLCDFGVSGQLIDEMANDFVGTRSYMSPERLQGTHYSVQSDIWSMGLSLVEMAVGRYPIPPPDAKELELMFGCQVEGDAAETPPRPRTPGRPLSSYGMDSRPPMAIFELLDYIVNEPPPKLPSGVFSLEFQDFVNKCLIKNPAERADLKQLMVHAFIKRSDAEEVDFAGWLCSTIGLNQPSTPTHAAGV

pIC50, ≥ 7.00:
O=C(NOCCO)c1c(Nc2ccc(I)cc2F)c(F)c(=O)n2c1CCCC2 [Example 7, 7-Fluoro-8-(2-fluoro-4-iodophenylamino)-N-(2-hydroxyethoxy)-6-oxo-2,3,4,6-tetrahydro-1H-quinolizine-9-carboxamide]
O=C(NOC[C@H](O)CO)c1c(Nc2ccc(I)cc2F)c(F)c(=O)n2c1CCC2 [Example 2, (R)—N-(2,3-Dihydroxypropoxy)-6-fluoro-7-(2-fluoro-4-iodophenylamino)-5-oxo-1,2,3,5-tetrahydroindolizine-8-carboxamide]
O=C(NOC[C@@H](O)CO)c1c(Nc2ccc(I)cc2F)c(F)c(=O)n2c1CCC2 [Example 5, (S)—N-(2,3-Dihydroxypropoxy)-6-fluoro-7-(2-fluoro-4-iodophenylamino)-5-oxo-1,2,3,5-tetrahydroindolizine-8-carboxamide]
O=C(NOC(CO)CO)c1c(Nc2ccc(I)cc2F)c(F)c(=O)n2c1CCC2 [Example 3, N-(1,3-Dihydroxypropan-2-yloxy)-6-fluoro-7-(2-fluoro-4-iodophenylamino)-5-oxo-1,2,3,5-tetrahydroindolizine-8-carboxamide]
O=C(NOCCO)c1c(Nc2ccc(I)cc2F)c(Cl)c(=O)n2c1CCC2 [Example 10, 6-Chloro-7-(2-fluoro-4-iodophenylamino)-N-(2-hydroxyethoxy)-5-oxo-1,2,3,5-tetrahydroindolizine-8-carboxamide]
O=C(O)c1c(Nc2ccc(I)cc2F)c(F)c(=O)n2c1CCC2 [Example 1, 6-Fluoro-7-(2-fluoro-4-iodophenylamino)-5-oxo-1,2,3,5-tetrahydroindolizine-8-carboxylic acid]
C#Cc1ccc(Nc2c(C(=O)NOCCO)c3n(c(=O)c2F)CCC3)c(F)c1 [Example 11, 7-(4-Ethynyl-2-fluorophenylamino)-6-fluoro-N-(2-hydroxyethoxy)-5-oxo-1,2,3,5-tetrahydroindolizine-8-carboxamide]
Cc1c(Nc2ccc(I)cc2F)c(C(=O)NOCCO)c2n(c1=O)CCC2 [Example 8, 7-(2-Fluoro-4-iodophenylamino)-N-(2-hydroxyethoxy)-6-methyl-5-oxo-1,2,3,5-tetrahydroindolizine-8-carboxamide]
O=C(NOCCO)c1c(Nc2ccc(I)cc2F)c(F)c(=O)n2c1CCC2 [Example 4, 6-Fluoro-7-(2-fluoro-4-iodophenylamino)-N-(2-hydroxyethoxy)-5-oxo-1,2,3,5-tetrahydroindolizine-8-carboxamide]

From patent US8022057B2, “MAPK/ERK kinase inhibitors” (Takeda Pharmaceutical Company Limited, priority 2007, dated 2011)
